# According to patent publication US4720497A, “6-purinyl N-/2-chloroethyl/carbamate and thiocarbamate and process for the preparation thereof” (SPOFA, Spojene Podniky pro Zdravotnickou Vyrobu, priority 1984, dated 1988):
# Assays:
# Yoshida tumor = assay: Survival of rats with implanted Yoshida tumor (Example 7); type: in vivo, female Wistar rats; settings: Wistar rats
# Excerpt: (§1) The antineoplastic activity of the compounds of the invention has been investigated by testing the compounds of the chemical group "in vivo" against experimental rodent tumors such as Crocker's sarcoma (S180), solid-type Ehrlich carcinoma (STE), kreb's ascites tumor (Kr2), all maintained in mice H, Gardner lymphosarcoma (LsG, C3H mice), P388 and L1210 leukemias (DBA2 mice), Zajdela ascites hapatoma (ZAH, Wistar rats), Yoshida ascites reticulosarcoma (Y, Wistar rats) and B16 melanoma (C57B16 mice) in experiments according to Jelinek, V. (Neoplasma 12, 469 (1969); ibid. 7, 146 (1960) and "in vitro" experiments using radioactive precursors of nucleic acids and proteins according to Miko, M. et al. (Cancer Res. 39, 4242 (1979); Neoplasma 26, 449 (1979); ibid. 16, 161--1969) with minor modifications (Mattern J.: Studies on the Drug Sensitivity of Short Term Cultured Tumor Cell Suspensions. In "Human Tumors in Short Term Culture" (Dendy, P. P. ed.), p. 301, Academic Press 1976). Therapeutic synergism has been studied by the method of Carter, W. H. et al. (cf. Cancer Res. 42, 2963--1982).
# Additionally, the compounds of the present invention are useful in increasing survival time of the suitable biological subjects, namely mice and rats bearing tumors STE, ZAH and/or Y: because of the lethal nature of the test system employed, the antitumor effect of the compounds is illustrated by a side comparison of the survival time of treated animals (survival for a longer time) with the untreated control groups of animals (cf. Examples 5, 6, and 7). In these typical experiments, ten animals are in the experimental groups, and the treated groups of animals survive for a longer time than the untreated controls.
# (§2) Fifty infantile female Wistar rats weighing approximately 60 g are divided into five groups: one control and four experimental ones, 10 animals each. A lethal dose of the tumor ascites from Zajdel ascitic hepatoma is implanted intraperitoneally in all the animals. The experimental groups are treated with the substance Ia in water suspension. The suspension contains the substance Ia in such an amount that a dose of 0.4 or 0.2 ml of the suspension p.o. is equal to a dose of 200 or 100 mg Ia/Kg. This dose is applied to the experimental animals once a day, five times altogether, starting on the first day after the implantation.
# Zajdel ascitic hepatoma = assay: Survival of rats with implanted Zajdel ascitic hepatoma, comparison with 6-mercaptopurine (Example 8); type: in vivo, female Wistar rats; settings: for Period of survival (% of control): Wistar rats
# Excerpt: as §1, §2
# tumor cells = assay: Comparison of cytotoxicity of Ia and Ib in vitro, precursor incorporation (Example 12); type: cell-based
# Excerpt: as §1
# In analogous experiments, the degree of influence on the initial velocity of the incorporation of ^3 H from 5-iodo-2'-deoxy-(6-^3 H)uridine or that of ^14 C from a mixture of L-(U-^14 C)-aminoacids to the fraction of Yoshida ascitic tumor cells insoluble in trichloroacetic acid serves as the measure of cytotoxicity. The value IC50 is the concentration of a substance that reduces the initial velocity of the ^3 H or ^14 C incorporation down to 50% of the noninfluenced control cells.
# In analogous experiments, the following values of IC50 were determined: […]
# [1] = Toxicity and tolerability by oral route; type: in vivo, small rodents; rat; mouse; man
# Excerpt: The compounds described herein can be administered to suitable biological subjects, particularly mammals, for their therapeutic antitumor effects, by conventional modes of administration alone, but preferably as active ingredients with any conventional suitable non-toxic pharmaceutical carrier, dissolved or suspended, for example, in water, saline, polyethylene or polypropylene alcohols, etc. The administration is preferably by the oral route. […]. The dosage administered will be dependent upon the type of tumor for which treatment is desired, the type of biological subject involved, weight, body surface, localization of the tumor, its morphological type, the frequency of treatment, individual tolerance and responsiveness of each subject, etc; for example, by oral route, the prolonged administration of 100, 200 mg/kg daily appears to be well tolerated both in the rat and in the mouse. The assessment drawn from the biological tests is that doses of 20 mg/kg (e.g. about 740 mg/m^2) may be regarded as well tolerated in man.
smiles,measurement,setting,value
"O=C(NCCCl)Sc1ncnc2nc[nH]c12 [Substance Ia, 6-[N-(2-Chloroethyl)carbamoyl]thiopurine]",Period of survival (% of control),Yoshida tumor; p.o. 5 × 100 mg/kg (Example 7),124 % of control
same,Period of survival (% of control),Yoshida tumor; p.o. 5 × 200 mg/kg (Example 7),158 % of control
same,Period of survival (% of control),Zajdel ascitic hepatoma; p.o. 5 × 100 mg/kg (Example 8),120 % of control
same,Period of survival (% of control),Zajdel ascitic hepatoma; p.o. 5 × 200 mg/kg (Example 8),128 % of control
same,antitumor effect / average period of survival vs non-treated control,Zajdel ascitic hepatoma; in words (Example 8),statistically significantly higher average period of survival
same,IC50,tumor cells; precursor 5-iodo-2'-deoxy(6-3H)uridine (Example 12),39 µM
same,IC50,tumor cells; precursor L-(U-14C)aminoacids (Example 12),62 µM
same,LD50,"[1]; in vivo, small rodents, oral route",≥ 3000 mg/kg
same,toxicity,[1]; in words,practically non-toxic
